Reference: patent US11059832B2, “HPK1 inhibitors and methods of using same” (University Health Network, priority 2015, dated 2021)

Legend:
Assay type in all cases: biochemical
human HPK1 (MAP4K1) = target: T1, human HPK1 (MAP4K1) (Homo sapiens, UniProt Q92918); experiment: HPK1 inhibition assay (indirect ELISA); conditions: GST-HPK1 0.6 nM, 12 μM ATP; read-out: IC50 Range HPK1
T1 construct: human HPK1 (aa 1-346); purchased Invitrogen PV6355
T1 sequence (Q92918 1-346): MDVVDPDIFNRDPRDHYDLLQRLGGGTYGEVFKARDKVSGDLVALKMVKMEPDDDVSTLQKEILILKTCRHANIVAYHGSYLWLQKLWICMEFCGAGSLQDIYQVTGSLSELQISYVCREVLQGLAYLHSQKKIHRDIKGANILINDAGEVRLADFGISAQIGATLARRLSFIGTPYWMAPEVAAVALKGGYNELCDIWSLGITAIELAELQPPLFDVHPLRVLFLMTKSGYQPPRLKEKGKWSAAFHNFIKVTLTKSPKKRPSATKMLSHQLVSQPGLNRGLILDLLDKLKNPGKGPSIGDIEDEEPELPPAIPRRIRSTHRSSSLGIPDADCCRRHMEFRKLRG
Experimental: Active HPK1 (MAP4K1) was purchased as an N-terminal GST fusion of human HPK1 (aa 1-346) from Invitrogen (cat #PV6355). HPK1 activity was measured using an indirect ELISA detection system. GST-HPK1 (0.6 nM) was incubated in the presence of 12 μM ATP (Sigma cat #A7699), 5 mM MOPS (pH 7.2), 2.5 mM β-glycerol-phosphate, 5 mM MgCl2, 0.4 mM EDTA, 1 mM EGTA, 0.05 mM DTT, in a 96 well microtitre plate pre-coated with 0.5 μg/well bovine myelin basic protein (MBP) (Millipore, cat #13-110). The reaction was allowed to proceed for 30 min, followed by 5 washes of the plate with Wash Buffer (phosphate buffered saline supplemented with 0.2% Tween 20), and incubation for 30 min with a 1:3000 dilution of anti-phospho-threonine rabbit polyclonal antibody (Cell Signaling cat #9381). The plate was washed 5 times with wash buffer, incubated for 30 min in the presence of goat anti-rabbit horse radish peroxidase conjugate (BioRad cat #1721019, 1:3000 concentration), washed an additional 5 times with wash buffer, and incubated in the presence of TMB substrate (Sigma cat #T0440). The colorimetric reaction was allowed to continue for 5 min, followed by addition of stop solution (0.5 N H2SO4), and quantified by detection at 450 nm with a monochromatic plate reader (Molecular Devices M5).
Compound inhibition was determined at either a fixed concentration (10 μM) or at a variable inhibitor concentration (typically 50 μM to 0.1 μM in a 10 point dose response titration). Compounds were pre-incubated in the presence of enzyme for 15 min prior to addition of ATP and the activity remaining quantified using the above described activity assay. The % inhibition of a compound was determined using the following formula; % inhibition=100×(1−(experimental value−background value)/(high activity control−background value)). The IC50 value was determined using a non-linear 4 point logistic curve fit (XLfit4, IDBS) with the formula; (A+(B/(1+((x/C)^D)))), where A=background value, B=range, C=inflection point, D=curve fit parameter.

LCK = target: T2, LCK (Homo sapiens, UniProt P06239); experiment: LCK inhibition, FRET based Z'-LYTE Kinase Assay; conditions: 25 nM LCK, 180 μM ATP; read-out: IC50 Range Lck
T2 construct: purchased Invitrogen P3043
Experimental: (§1) FLT3 and LCK compound inhibition were determined using FRET based Z′-LYTE Kinase Assay Kit with Tyrosine 2 peptide as the substrate (Invitrogen cat #PV3191). […] The % inhibition values were determined according to the manufacturer's directions and IC50 values were obtained using a non-linear 4 point logistic curve fit (XLfit4, IDBS).

FLT3 = target: T3, FLT3 (Homo sapiens, UniProt P36888); experiment: FLT3 inhibition, FRET based Z'-LYTE Kinase Assay; conditions: 1 nM FLT3, 940 μM ATP; read-out: IC50 Range Flt3
T3 construct: purchased Invitrogen PV3182
T3 sequence (P36888 27-993): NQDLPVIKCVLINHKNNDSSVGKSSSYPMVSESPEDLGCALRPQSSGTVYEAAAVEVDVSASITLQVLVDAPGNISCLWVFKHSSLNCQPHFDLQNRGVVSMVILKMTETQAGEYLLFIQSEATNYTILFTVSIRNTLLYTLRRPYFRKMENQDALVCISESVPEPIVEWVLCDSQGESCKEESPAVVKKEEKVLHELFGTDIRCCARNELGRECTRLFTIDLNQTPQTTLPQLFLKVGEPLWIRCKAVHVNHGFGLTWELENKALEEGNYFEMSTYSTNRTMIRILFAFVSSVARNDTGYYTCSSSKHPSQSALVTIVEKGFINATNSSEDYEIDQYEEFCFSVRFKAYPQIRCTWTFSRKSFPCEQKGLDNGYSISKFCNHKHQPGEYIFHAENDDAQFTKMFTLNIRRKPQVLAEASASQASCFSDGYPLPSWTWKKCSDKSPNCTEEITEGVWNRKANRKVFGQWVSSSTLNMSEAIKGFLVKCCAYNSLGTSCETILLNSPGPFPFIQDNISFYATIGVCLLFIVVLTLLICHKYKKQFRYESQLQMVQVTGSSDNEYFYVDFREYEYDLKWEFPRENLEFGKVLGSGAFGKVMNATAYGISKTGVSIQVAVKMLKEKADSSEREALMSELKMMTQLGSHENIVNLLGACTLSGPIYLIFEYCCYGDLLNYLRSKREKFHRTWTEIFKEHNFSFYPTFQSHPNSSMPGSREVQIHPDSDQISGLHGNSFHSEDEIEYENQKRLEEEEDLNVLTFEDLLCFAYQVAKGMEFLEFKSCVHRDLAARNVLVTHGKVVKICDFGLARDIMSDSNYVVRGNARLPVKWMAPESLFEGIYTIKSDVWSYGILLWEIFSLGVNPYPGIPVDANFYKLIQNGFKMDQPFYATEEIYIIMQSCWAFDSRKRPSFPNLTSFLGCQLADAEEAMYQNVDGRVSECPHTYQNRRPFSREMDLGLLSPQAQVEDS
Experimental: as §1

T2 sequence (P06239 whole entry, species assumed): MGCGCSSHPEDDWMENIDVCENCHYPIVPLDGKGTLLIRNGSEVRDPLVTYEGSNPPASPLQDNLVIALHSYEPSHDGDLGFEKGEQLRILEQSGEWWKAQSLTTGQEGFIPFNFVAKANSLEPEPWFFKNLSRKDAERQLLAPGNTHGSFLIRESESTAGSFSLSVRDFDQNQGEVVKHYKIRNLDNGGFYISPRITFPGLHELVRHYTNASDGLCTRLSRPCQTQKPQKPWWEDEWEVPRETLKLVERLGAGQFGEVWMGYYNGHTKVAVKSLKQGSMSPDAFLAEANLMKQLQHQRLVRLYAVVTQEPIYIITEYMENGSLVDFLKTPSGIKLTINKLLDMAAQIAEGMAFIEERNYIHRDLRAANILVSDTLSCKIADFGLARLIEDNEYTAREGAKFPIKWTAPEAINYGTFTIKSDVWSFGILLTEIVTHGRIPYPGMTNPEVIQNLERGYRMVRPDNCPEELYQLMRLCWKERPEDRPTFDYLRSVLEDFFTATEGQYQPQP

Structure (SMILES) | IC50 (human HPK1 (MAP4K1)) [µM] | IC50 (LCK) [µM] | IC50 (FLT3) [µM]
CN1CCN(c2ccc3nc(-c4c(NC5CCOCC5)c5ccsc5[nH]c4=O)[nH]c3c2)CC1 [Example A7, 5-(6-(4-methylpiperazin-1-yl)-1H-benzo[d]imidazol-2-yl)-4-((tetrahydro-2H-pyran-4-yl)amino)thieno[2,3-b]pyridin-6(7H)-one] | ≤ 0.05 | 0.05 to 0.5 | ≤ 0.05
CN1CCN(c2ccc3nc(-c4c(N[C@@H]5CC[C@H](O)C5)c5ccsc5[nH]c4=O)[nH]c3c2)CC1 (relative stereo) [Example A13, 4-(((1R*,3S*)-3-hydroxycyclopentyl)amino)-5-(6-(4-methylpiperazin-1-yl)-1H-benzo[d]imidazol-2-yl)thieno[2,3-b]pyridin-6(7H)-one] | ≤ 0.05 | 0.05 to 0.5 | ≤ 0.05
CN1CCN(c2cc3[nH]c(-c4c(N)c5sccc5[nH]c4=O)nc3cc2F)CC1 [Example A68, 7-amino-6-(5-fluoro-6-(4-methylpiperazin-1-yl)-1H-benzo[d]imidazol-2-yl)thieno[3,2-b]pyridin-5(4H)-one] | ≤ 0.05 | ≤ 0.05 | ≤ 0.05
CN1CCN(c2ccc3nc(-c4c(N[C@H]5CCCC[C@H]5O)c5sccc5[nH]c4=O)[nH]c3c2)CC1 [Example A44, 7-(((1S,2R)-2-hydroxycyclohexyl)amino)-6-(6-(4-methylpiperazin-1-yl)-1H-benzo[d]imidazol-2-yl)thieno[3,2-b]pyridin-5(4H)-one] | ≤ 0.05 | ≤ 0.05 | ≤ 0.05
CN1CCN(c2ccc3nc(-c4c(N[C@@H]5CCC[C@H]5O)c5ccsc5[nH]c4=O)[nH]c3c2)CC1 [Example A67, 4-(((1R,2R)-2-hydroxycyclopentyl)amino)-5-(6-(4-methylpiperazin-1-yl)-1H-benzo[d]imidazol-2-yl)thieno[2,3-b]pyridin-6(7H)-one] | ≤ 0.05 | 0.05 to 0.5 | ≤ 0.05
CN1CCN(c2ccc3nc(-c4c(NC5CCCC5)c5cscc5[nH]c4=O)[nH]c3c2)CC1 [Example A24, 4-(cyclopentylamino)-3-(6-(4-methylpiperazin-1-yl)-1H-benzo[d]imidazol-2-yl)thieno[3,4-b]pyridin-2(1H)-one] | ≤ 0.05 | ≤ 0.05 | ≤ 0.05
CN1CCN(c2ccc3nc(-c4c(NCc5cccnc5)c5sccc5[nH]c4=O)[nH]c3c2)CC1 [Example A52, 6-(6-(4-methylpiperazin-1-yl)-1H-benzo[d]imidazol-2-yl)-7-((pyridin-3-ylmethyl)amino)thieno[3,2-b]pyridin-5(4H)-one] | ≤ 0.05 | ≤ 0.05 | ≤ 0.05
CN1CCN(c2ccc3nc(-c4c(NC5CCN(C=O)CC5)c5ccsc5[nH]c4=O)[nH]c3c2)CC1 [Example A17, 4-((5-(6-(4-methylpiperazin-1-yl)-1H-benzo[d]imidazol-2-yl)-6-oxo-6,7-dihydrothieno[2,3-b]pyridin-4-yl)amino)piperidine-1-carbaldehyde] | ≤ 0.05 | ≤ 0.05 | ≤ 0.05
O=c1[nH]c2sccc2c(N[C@H]2CCCC[C@H]2O)c1-c1nc2ccc(N3CCOCC3)cc2[nH]1 [Example A72, 4-(((1S,2R)-2-hydroxycyclohexyl)amino)-5-(6-morpholino-1H-benzo[d]imidazol-2-yl)thieno[2,3-b]pyridin-6(7H)-one] | ≤ 0.05 | > 0.5 | ≤ 0.05
CN1CCN(c2ccc3nc(-c4c(N)c5ccsc5[nH]c4=O)[nH]c3c2F)CC1 [Example A69, 4-amino-5-(7-fluoro-6-(4-methylpiperazin-1-yl)-1H-benzo[d]imidazol-2-yl)thieno[2,3-b]pyridin-6(7H)-one] |  | 0.05 to 0.5 | ≤ 0.05
CN1CCN(c2ccc3nc(-c4c(N[C@H]5CCCC[C@H]5O)c5cscc5[nH]c4=O)[nH]c3c2)CC1 [Example A70, 4-(((1S,2R)-2-hydroxycyclohexyl)amino)-3-(6-(4-methylpiperazin-1-yl)-1H-benzo[d]imidazol-2-yl)thieno[3,4-b]pyridin-2(1H)-one] |  | ≤ 0.05 | ≤ 0.05
COc1csc2[nH]c(=O)c(-c3nc4ccc(N5CCN(C)CC5)cc4[nH]3)c(N)c12 [Example A5, 4-amino-3-methoxy-5-(6-(4-methylpiperazin-1-yl)-1H-benzo[d]imidazol-2-yl)thieno[2,3-b]pyridin-6(7H)-one] | > 0.5 | > 0.5 | 

Results, then the molecule that gave them:

IC50 (human HPK1 (MAP4K1)) [µM] | IC50 (LCK) [µM] | IC50 (FLT3) [µM] | Structure (SMILES)
≤ 0.05 | 0.05 to 0.5 | ≤ 0.05 | CN1CCN(c2ccc3nc(-c4c(N[C@H]5CCNC[C@H]5F)c5ccsc5[nH]c4=O)[nH]c3c2)CC1 (relative stereo) [Example A55, 4-(((3R*,4S*)-3-fluoropiperidin-4-yl)amino)-5-(6-(4-methylpiperazin-1-yl)-1H-benzo[d]imidazol-2-yl)thieno[2,3-b]pyridin-6(7H)-one]
≤ 0.05 | 0.05 to 0.5 | ≤ 0.05 | Nc1c(-c2nc3ccc(N4CCN(C5COC5)CC4)cc3[nH]2)c(=O)[nH]c2sccc12 [Example A65, 4-amino-5-(6-(4-(oxetan-3-yl)piperazin-1-yl)-1H-benzo[d]imidazol-2-yl)thieno[2,3-b]pyridin-6(7H)-one]
≤ 0.05 | 0.05 to 0.5 | ≤ 0.05 | Nc1c(-c2nc3ccc(N4CCOCC4)cc3[nH]2)c(=O)[nH]c2ccsc12 [Example A31, 7-amino-6-(6-morpholino-1H-benzo[d]imidazol-2-yl)thieno[3,2-b]pyridin-5(4H)-one]
≤ 0.05 | 0.05 to 0.5 | ≤ 0.05 | Nc1c(-c2nc3ccc(N4CCNCC4)cc3[nH]2)c(=O)[nH]c2sccc12 [Example A64, 4-amino-5-(6-(piperazin-1-yl)-1H-benzo[d]imidazol-2-yl)thieno[2,3-b]pyridin-6(7H)-one]
≤ 0.05 | 0.05 to 0.5 | ≤ 0.05 | Cc1cc2[nH]c(-c3c(N)c4ccsc4[nH]c3=O)nc2cc1N1CCN(C)CC1 [Example A61, 4-amino-5-(6-methyl-5-(4-methylpiperazin-1-yl)-1H-benzo[d]imidazol-2-yl)thieno[2,3-b]pyridin-6(7H)-one]
